Several values for one entry are separate records, joined by “and”; a condition that tells them apart may be missing. Equal entries are not always repeated. Where two headings read alike, the source gives them in different places.
Legend:
hCK2α [1] = biological target: T1, hCK2α (Homo sapiens, UniProt P68400); parameters: method as in PMID 32162783; settings: cited from earlier work
T1 construct: made in house

hCK2α [2] = biological target: T1, hCK2α; parameters: method as in PMID 23155426; settings: pH 7.5; cited from earlier work
[3] = Density measurements: partial molar volume and thermal expansivity of the solute; type: physicochemical; settings: 50 mM phosphate buffer pH 11; for α2^0, thermal volumetric expansivity of the solute: 20, 25, 30 °C; for V2^0, partial molar volume: 25 °C
Procedure: Partial molar volumes were estimated with a density meter Anton Paar DMA 5000 M at 20, 25, and 30 °C from the concentration–density dependency for compounds dissolved in 50 mM phosphate buffer (pH 11). The experimental procedure and the data analysis method were described previously.[36],[57],[58] The partial molar volume at 25 °C (V2^0) and thermal volumetric expansivity of the solute (α2^0 = ∂V2^0/∂T) were estimated globally from two independent dilution series. The density of pure solvent (d0) was extrapolated individually for each experimental condition (i.e., temperature and buffer preparation). The change of d0 with temperature was further used to determine thermal volumetric expansivity coefficient of the bulk buffer according to the formula α0 = −(∂d0/∂T)/d0.
According to the Lum, Chandler, and Weeks (LCW) theory, the hydrophobic interactions scale for solutes of subnanometer size with the volume of the molecule rather than its surface.[61] We have recently proposed partial molar volume as the extensive parameter to describe both the solute volume and the solute-induced reorganization of the solvation shell.[36],[57],[58],[62],[63] By analyzing density data at three temperatures (20, 25, and 30 °C), we could estimate the partial molar volume of the ligand (V2^0) and the bulk solvent density (d0(T)). We could further separate the thermal expansivity coefficient of the bulk solvent (α0) and the apparent expansivity of the solute (α2^0). The latter parameter is comprised mainly of the thermal expansion effect of the hydration shell. The values of α0 fell within the narrow range of (26.9 ± 1.3) × 10^–5 K^–1, which is close to the literature data for water (25.72 × 10^–5 K^–1 at 25 °C).[64] […] The solute thermal expansivity (α2^0), together with the change of isobaric heat capacity upon ligand binding (ΔCp,bind), has already been associated with the properties of the solvation layer.[65],[66] Importantly, α2^0 is proportional to the partial molar volume V2^0 (Figure 3D). So, V2^0 may be another descriptor of hydrophobic interactions. Consequently, the volume-normalized solute expansivity coefficient (α = α2^0/V2^0) is almost the same for all studied bromobenzotriazoles (232 ± 22 × 10^–5 K^–1). Importantly, this value substantially exceeds the thermal expansivity coefficient of the bulk buffer (α0 = 26.9 ± 1.3 × 10^–5 K^–1), clearly confirming that water organization changes with temperature more near the solute surface than in the bulk.

hCK2α [4] = biological target: T1, hCK2α; parameters: method as in PMID 25891901; settings: cited from earlier work
hCK2α [5] = biological target: T1, hCK2α; assay: Isothermal titration calorimetry (NanoITC); type: binding; settings: pH 8
Procedure: (§1) In all experiments the maximum ligand concentration of 10 μM was used to minimize a possible contribution of the secondary binding site.

[6] = parameters: method as in PMID 22632480; settings: pH 8.0; cited from earlier work
hCK2α [7] = biological target: T1, hCK2α; assay: Isothermal titration calorimetry (MicroCal iTC200), reverse titration; type: binding; settings: for ΔGbind, free energy of binding: ITC; for ΔSrt, entropic term for loss of ligand rotational and translational degrees of freedom: calculated from ligand molecular mass; for Ts, temperature at which the entropy change upon ligand binding is zero: estimated from the linear fit of ΔS(T); for ΔSHE(Ts), hydrophobic-effect contribution to the entropy change upon binding: ≈ 1.35∙ΔCp,bind∙ln(Ts/386)
Procedure: ITC measurements were carried out using the MicroCal iTC200 (Malvern) calorimeter. The hCK2α samples were diluted to the required protein concentration with the 25 mM Tris-HCl pH 8 buffer containing 0.5 M NaCl. Stock ligand solutions were diluted with the appropriate DMSO volume prior to mixing with the buffer to obtain the required ligand concentration and a final DMSO content of 1%. Due to the limited solubility of halogenated benzotriazoles, all titration experiments were performed in the reverse mode, in which buffered ligand solution was placed in the calorimetric cell and titrated with the protein solution.[35]
as §1

[8] = parameters: method as in PMID 32162783; settings: HPLC-derived hydrophobicity; cited from earlier work
hCK2α [9] = biological target: T1, hCK2α; assay: Fluorescence-monitored thermal denaturation (nanoDSF) of hCK2α complexes; type: binding; settings: protein 2.5 μM, ligand 25 μM; for Tm (°C) at pH 7.5: hCK2α in complex with ligand; for ΔTm (°C) at pH 7.5: unfolding temperature with ligand minus without
Procedure: The samples were loaded into nanoDSF grade Standard Capillaries (NanoTemper Technologies) and analyzed using the Prometheus NT.48 nanoDSF device (NanoTemper Technologies). Thermal unfolding of the protein was monitored using a linear thermal ramp (1 °C·min^–1; 20–80 °C) with an excitation power of 30%.
This prompted us to measure the thermal stabilities of hCK2α and its complexes at pH 7.5 by fluorescence-monitored thermal denaturation (nanoDSF) (Table 2).

[10] = parameters: method as in doi:10.1016/j.molliq.2019.111527; settings: calculated water–octanol partition coefficient; cited from earlier work
hCK2α [11] = biological target: T1, hCK2α; parameters: method as in earlier work; settings: ref 6 (of the supplement); read-out: KATP, dissociation constant of ATP; cited from earlier work
[12] = iTC200, 20 °C, pH 8, independent experiments separately evaluated
[13] = iTC200, 25 °C, pH 8, independent experiments separately evaluated
[14] = iTC200, 30 °C, pH 8, independent experiments separately evaluated
[15] = iTC200, 35 °C, pH 8, independent experiments separately evaluated

T1 sequence (P68400 whole entry): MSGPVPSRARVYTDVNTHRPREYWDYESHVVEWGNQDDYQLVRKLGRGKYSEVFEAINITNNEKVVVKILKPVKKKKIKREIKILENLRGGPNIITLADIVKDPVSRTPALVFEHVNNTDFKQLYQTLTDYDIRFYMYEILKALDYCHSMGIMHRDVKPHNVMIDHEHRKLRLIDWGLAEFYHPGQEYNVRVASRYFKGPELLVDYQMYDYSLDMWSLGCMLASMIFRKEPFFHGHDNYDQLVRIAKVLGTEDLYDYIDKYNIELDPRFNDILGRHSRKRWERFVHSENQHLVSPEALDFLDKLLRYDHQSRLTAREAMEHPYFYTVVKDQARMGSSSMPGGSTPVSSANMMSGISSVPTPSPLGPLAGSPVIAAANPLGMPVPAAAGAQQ

Structure (SMILES)	IC50 (hCK2α [2]) [µM]	α2^0, thermal volumetric expansivity of the solute [3] [cm^3·mol^–1·K^–1]	V2^0, partial molar volume [3] [cm^3·mol^–1]	ΔTm (°C) at pH 8 (hCK2α [4]) [°C]	fraction of the ligand that is neutral [6]	ΔGbind, free energy of binding (hCK2α [7]; 25 °C, pH 8)	ΔSrt, entropic term for loss of ligand rotational and translational degrees of freedom (hCK2α [7]) [J∙mol-1∙K-1]	Ts, temperature at which the entropy change upon ligand binding is zero (hCK2α [7]) [K]	Kd (hCK2α [7]; [12])	Kd (hCK2α [7]; [13])	Kd (hCK2α [7]; [14])	Kd (hCK2α [7]; [15])	ΔSHE(Ts), hydrophobic-effect contribution to the entropy change upon binding (hCK2α [7]) [J∙mol-1∙K-1]	log(τ) [8]	Tm (°C) at pH 7.5 (hCK2α [9]) [°C]	ΔTm (°C) at pH 7.5 (hCK2α [9]) [°C]	log P [10]	also measured
Clc1c(Br)c(Br)c(Cl)c2[nH]nnc12 [5,6-Br2-4,7-Cl2Bt]																		affinity to hCK2α among the four isomeric dibromo–dichlorobenzotriazoles (hCK2α [1]): highest affinity
Brc1cc2nn[nH]c2cc1Br [5,6-Br2Bt, 5,6-bromobenzotriazole]	0.56 ± 0.02	0.33 ± 0.14	150.0 ± 0.6	7.4 ± 0.1	0.08	–40.9 ± 0.3 kJ·mol^–1	-291	268 ± 42	0.032 µM and 0.033 µM	0.05 µM and 0.027 µM	0.084 µM and 0.069 µM	0.108 µM and 0.115 µM	291 ± 34	–0.30	52.96 ± 0.05	7.8 ± 0.1	2.36	Kd (hCK2α [5]; 15 °C): 0.059 ± 0.049 µM; ΔG (hCK2α [5]; 15 °C): -9.54 ± 0.478 kcal/mol; ΔH (hCK2α [5]; 15 °C): -13.5 ± 1.12 kcal/mol; ΔS (hCK2α [5]; 15 °C): -58 ± 18 J·mol-1·K-1; Kd (hCK2α [5]; 20 °C): 0.06 ± 0.054 µM; ΔG (hCK2α [5]; 20 °C): -9.7 ± 0.526 kcal/mol; ΔH (hCK2α [5]; 20 °C): -14.8 ± 1.34 kcal/mol; ΔS (hCK2α [5]; 20 °C): -73 ± 21 J·mol-1·K-1; Kd (hCK2α [5]; 25 °C): 0.046 ± 0.026 µM; ΔG (hCK2α [5]; 25 °C): -10 ± 0.335 kcal/mol; ΔH (hCK2α [5]; 25 °C): -16.9 ± 0.765 kcal/mol; ΔS (hCK2α [5]; 25 °C): -97 ± 12 J·mol-1·K-1; Kd (hCK2α [5]; 30 °C): 0.15 ± 0.12 µM; ΔG (hCK2α [5]; 30 °C): -9.44 ± 0.454 kcal/mol; ΔH (hCK2α [5]; 30 °C): -18.3 ± 0.693 kcal/mol; ΔS (hCK2α [5]; 30 °C): -122 ± 11 J·mol-1·K-1; Kd (hCK2α [5]; 35 °C): 0.093 ± 0.049 µM; ΔG (hCK2α [5]; 35 °C): -9.92 ± 0.311 kcal/mol; ΔH (hCK2α [5]; 35 °C): -20.8 ± 1.86 kcal/mol; ΔS (hCK2α [5]; 35 °C): -148 ± 26 J·mol-1·K-1
Brc1ccc2n[nH]nc2c1 [5-BrBt]	26 ± 3	0.14 ± 0.20	132.7 ± 0.8	1.8 ± 0.1	0.26	–34.4 ± 0.6 kJ·mol^–1	-277	281 ± 152	0.73 µM and 0.55 µM	0.93 ± 0.28 µM	1.27 µM and 0.99 µM	1.33 µM and 1.89 µM	120 ± 56	–0.41	47.17 ± 0.02	2.0 ± 0.1	1.73	Kd (hCK2α [7]; iTC200, 15 °C, pH 8, independent experiments separately evaluated): 0.88 µM and 0.49 µM; ΔG (hCK2α [7]; [13]): -8.22 ± 0.14 kcal/mol and -8.22 ± 0.359 kcal/mol; ΔSother, entropy change assigned to all other processes accompanying ligand binding (hCK2α [7]; ΔSrt + ΔSHE(Ts) + ΔSother = 0): 157 ± 56 J∙mol-1∙K-1
Nc1ncnc2c1ncn2[C@@H]1O[C@H](COP(=O)(O)OP(=O)(O)OP(=O)(O)O)[C@@H](O)[C@H]1O [ATP]																		Kd (hCK2α [11]): 4.3 ± 1.8 µM
